# Measured values reported in ChEMBL document CHEMBL3885881, “DrugMatrix”.
# Organism: Rattus norvegicus
# Assay: DrugMatrix - Regimen: Daily Repeat
# Assay type: toxicity, organism-based, Sprague-Dawley
# Parameters: regimen Daily Repeat, gender Male, age 6-8 weeks
# Conditions: in vivo, sc, 120 h, route subcutaneous, time 5 day, vehicle 100 % SALINE; for ABSOLUTE BASOPHIL / ABSOLUTE EOSINOPHIL / ABSOLUTE LYMPHOCYTE / ABSOLUTE MONOCYTE / ABSOLUTE SEGMENTED NEUTROPHIL / BASOPHIL / EOSINOPHIL / ERYTHROCYTE COUNT / HEMATOCRIT / HEMOGLOBIN / LEUKOCYTE COUNT / LYMPHOCYTE / MEAN CORPUSCULAR HEMOGLOBIN / MEAN CORPUSCULAR HEMOGLOBIN CONCENTRATION / MEAN CORPUSCULAR VOLUME / MONOCYTE / NEUTROPHIL / NUCLEATED RED BLOOD CELLS / PLATELET COUNT: tissue Blood
# [1] = 0 mg/kg, tissue Plasma, dose level Control
compound,measurement,setting,value
CC(N)Cc1c[nH]c2ccc(OCc3cccs3)cc12 (configuration not stated) [BW-723C86],ABSOLUTE BASOPHIL,"0 mg/kg, dose level Control",0 CELLS/uL
same,ABSOLUTE EOSINOPHIL,"0 mg/kg, dose level Control",0 CELLS/uL
same,ABSOLUTE LYMPHOCYTE,"0 mg/kg, dose level Control",5956.67 CELLS/uL
same,ABSOLUTE MONOCYTE,"0 mg/kg, dose level Control",0 CELLS/uL
same,ABSOLUTE SEGMENTED NEUTROPHIL,"0 mg/kg, dose level Control",510 CELLS/uL
same,BASOPHIL,"0 mg/kg, dose level Control",0%
same,EOSINOPHIL,"0 mg/kg, dose level Control",0%
same,ERYTHROCYTE COUNT,"0 mg/kg, dose level Control",5.39 x10E6/uL
same,HEMATOCRIT,"0 mg/kg, dose level Control",32.5%
same,HEMOGLOBIN,"0 mg/kg, dose level Control",12.47 G/DL
same,LEUKOCYTE COUNT,"0 mg/kg, dose level Control",6.47 x10E3/uL
same,LYMPHOCYTE,"0 mg/kg, dose level Control",92%
same,MEAN CORPUSCULAR HEMOGLOBIN,"0 mg/kg, dose level Control",23.13 pg
same,MEAN CORPUSCULAR HEMOGLOBIN CONCENTRATION,"0 mg/kg, dose level Control",38.37 G/DL
same,MEAN CORPUSCULAR VOLUME,"0 mg/kg, dose level Control",60.3 fL
same,MONOCYTE,"0 mg/kg, dose level Control",0%
same,NEUTROPHIL,"0 mg/kg, dose level Control",8%
same,NUCLEATED RED BLOOD CELLS,"0 mg/kg, dose level Control",0.33 /100WBC
same,PLATELET COUNT,"0 mg/kg, dose level Control",888 x10E3/uL
same,ALANINE AMINOTRANSFERASE,[1],43.67 u/L
same,ALBUMIN,[1],4.37 G/DL
same,ALKALINE PHOSPHATASE,[1],356 u/L
same,ASPARTATE AMINOTRANSFERASE,[1],74 u/L
same,BLOOD UREA NITROGEN,[1],11 mg/dL
same,CARBON DIOXIDE,[1],32.33 mmol/L
same,CHLORIDE,[1],103.33 MEQ/L
same,CHOLESTEROL,[1],70.67 mg/dL
same,CREATINE PHOSPHOKINASE,[1],195.33 u/L
same,CREATININE,[1],0.16 mg/dL
same,GLUCOSE,[1],161.67 mg/dL
same,LACTATE DEHYDROGENASE,[1],84 u/L
same,LIPASE,[1],9 u/L
same,PHOSPHORUS,[1],12.57 mg/dL
same,POTASSIUM,[1],6.87 MEQ/L
same,SODIUM,[1],147.6 MEQ/L
same,TOTAL BILIRUBIN,[1],0.13 mg/dL
same,TOTAL PROTEIN,[1],6.27 G/DL
same,URIC ACID,[1],1.67 mg/dL
same,ABSOLUTE BASOPHIL,"10 mg/kg, dose level Low",0 CELLS/uL
same,ABSOLUTE EOSINOPHIL,"10 mg/kg, dose level Low",0 CELLS/uL
same,ABSOLUTE LYMPHOCYTE,"10 mg/kg, dose level Low",5627 CELLS/uL
same,ABSOLUTE MONOCYTE,"10 mg/kg, dose level Low",73.33 CELLS/uL
same,ABSOLUTE SEGMENTED NEUTROPHIL,"10 mg/kg, dose level Low",866.33 CELLS/uL
same,BASOPHIL,"10 mg/kg, dose level Low",0%
same,EOSINOPHIL,"10 mg/kg, dose level Low",0%
same,ERYTHROCYTE COUNT,"10 mg/kg, dose level Low",5.18 x10E6/uL
same,HEMATOCRIT,"10 mg/kg, dose level Low",31.03%
same,HEMOGLOBIN,"10 mg/kg, dose level Low",12 G/DL
same,LEUKOCYTE COUNT,"10 mg/kg, dose level Low",6.57 x10E3/uL
same,LYMPHOCYTE,"10 mg/kg, dose level Low",85.33%
same,MEAN CORPUSCULAR HEMOGLOBIN,"10 mg/kg, dose level Low",23.2 pg
same,MEAN CORPUSCULAR HEMOGLOBIN CONCENTRATION,"10 mg/kg, dose level Low",38.67 G/DL
same,MEAN CORPUSCULAR VOLUME,"10 mg/kg, dose level Low",60 fL
same,MONOCYTE,"10 mg/kg, dose level Low",1%
same,NEUTROPHIL,"10 mg/kg, dose level Low",13.67%
same,NUCLEATED RED BLOOD CELLS,"10 mg/kg, dose level Low",0.33 /100WBC
same,PLATELET COUNT,"10 mg/kg, dose level Low",1156.33 x10E3/uL
